Measurements from article PMC6318026 (Molecular cancer therapeutics, 2018).

Biological target: dihydroorotate dehydrogenase (DHODH) (Homo sapiens, UniProt Q02127)
Test: recombinant DHODH enzyme assay
Assay type: biochemical

dihydroorotate dehydrogenase (DHODH), sequence (Q02127 whole entry): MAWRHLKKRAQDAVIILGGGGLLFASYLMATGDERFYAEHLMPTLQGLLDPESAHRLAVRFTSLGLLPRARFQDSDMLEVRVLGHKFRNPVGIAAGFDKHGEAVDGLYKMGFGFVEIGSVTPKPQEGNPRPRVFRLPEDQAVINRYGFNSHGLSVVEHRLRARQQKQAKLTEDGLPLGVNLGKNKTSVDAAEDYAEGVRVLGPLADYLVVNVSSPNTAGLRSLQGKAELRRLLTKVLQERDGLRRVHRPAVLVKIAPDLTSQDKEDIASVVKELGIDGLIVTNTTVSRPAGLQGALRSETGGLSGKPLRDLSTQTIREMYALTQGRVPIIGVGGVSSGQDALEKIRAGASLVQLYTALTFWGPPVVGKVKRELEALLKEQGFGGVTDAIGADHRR

C/C(O)=C(\C#N)C(=O)Nc1ccc(C(F)(F)F)cc1 [teriflunomide]
recombinant DHODH enzyme assay; isolated mitochondria assay: inhibited the activity of recombinant DHODH using in vitro enzyme assays, though not as potently as do brequinar or teriflunomide
